For 32 compounds, IC50 results are on record in patent publication US7205295B2, “Benzoxazin-3-ones and derivatives thereof as therapeutic agents” (Warner-Lambert Company LLC, priority 2002, dated 2007).

The target of the assay is T1, PI3Kγ (p101/p110γ protein) (Homo sapiens, UniProt P48736).
T1 construct: HA; made in house; host or cells: Spodoptera frugiperda (Sf9) cells, baculovirus co-infection
T1 sequence (P48736 whole entry, species assumed): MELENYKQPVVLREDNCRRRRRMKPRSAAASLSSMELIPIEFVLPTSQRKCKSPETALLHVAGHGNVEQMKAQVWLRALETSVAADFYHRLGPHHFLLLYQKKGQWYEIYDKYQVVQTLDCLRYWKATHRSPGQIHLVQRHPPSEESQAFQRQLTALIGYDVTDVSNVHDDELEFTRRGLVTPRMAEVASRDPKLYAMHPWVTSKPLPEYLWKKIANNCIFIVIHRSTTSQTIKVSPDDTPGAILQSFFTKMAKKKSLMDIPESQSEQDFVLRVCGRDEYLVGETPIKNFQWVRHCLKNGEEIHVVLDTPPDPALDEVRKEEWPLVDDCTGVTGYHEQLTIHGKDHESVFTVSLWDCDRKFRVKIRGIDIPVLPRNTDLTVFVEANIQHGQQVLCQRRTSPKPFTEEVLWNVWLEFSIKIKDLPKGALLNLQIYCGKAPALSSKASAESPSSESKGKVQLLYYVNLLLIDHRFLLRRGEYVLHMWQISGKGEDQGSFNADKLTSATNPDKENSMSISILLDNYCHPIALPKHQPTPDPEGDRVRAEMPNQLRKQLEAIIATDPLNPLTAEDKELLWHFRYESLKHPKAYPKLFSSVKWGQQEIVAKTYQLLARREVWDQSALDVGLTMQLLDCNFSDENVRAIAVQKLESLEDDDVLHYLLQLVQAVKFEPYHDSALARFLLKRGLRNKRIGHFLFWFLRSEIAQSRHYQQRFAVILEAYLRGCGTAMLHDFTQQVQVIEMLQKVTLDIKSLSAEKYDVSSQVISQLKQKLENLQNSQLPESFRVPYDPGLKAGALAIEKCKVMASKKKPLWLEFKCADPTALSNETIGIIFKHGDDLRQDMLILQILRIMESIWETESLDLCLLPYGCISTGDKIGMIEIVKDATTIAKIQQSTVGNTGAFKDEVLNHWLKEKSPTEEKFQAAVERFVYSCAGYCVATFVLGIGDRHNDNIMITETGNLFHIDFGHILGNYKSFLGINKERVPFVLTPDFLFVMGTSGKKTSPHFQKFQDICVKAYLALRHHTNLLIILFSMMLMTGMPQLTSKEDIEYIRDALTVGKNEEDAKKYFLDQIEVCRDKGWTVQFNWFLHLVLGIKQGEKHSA
T1 sequence (Q8WYR1 whole entry partner, species assumed): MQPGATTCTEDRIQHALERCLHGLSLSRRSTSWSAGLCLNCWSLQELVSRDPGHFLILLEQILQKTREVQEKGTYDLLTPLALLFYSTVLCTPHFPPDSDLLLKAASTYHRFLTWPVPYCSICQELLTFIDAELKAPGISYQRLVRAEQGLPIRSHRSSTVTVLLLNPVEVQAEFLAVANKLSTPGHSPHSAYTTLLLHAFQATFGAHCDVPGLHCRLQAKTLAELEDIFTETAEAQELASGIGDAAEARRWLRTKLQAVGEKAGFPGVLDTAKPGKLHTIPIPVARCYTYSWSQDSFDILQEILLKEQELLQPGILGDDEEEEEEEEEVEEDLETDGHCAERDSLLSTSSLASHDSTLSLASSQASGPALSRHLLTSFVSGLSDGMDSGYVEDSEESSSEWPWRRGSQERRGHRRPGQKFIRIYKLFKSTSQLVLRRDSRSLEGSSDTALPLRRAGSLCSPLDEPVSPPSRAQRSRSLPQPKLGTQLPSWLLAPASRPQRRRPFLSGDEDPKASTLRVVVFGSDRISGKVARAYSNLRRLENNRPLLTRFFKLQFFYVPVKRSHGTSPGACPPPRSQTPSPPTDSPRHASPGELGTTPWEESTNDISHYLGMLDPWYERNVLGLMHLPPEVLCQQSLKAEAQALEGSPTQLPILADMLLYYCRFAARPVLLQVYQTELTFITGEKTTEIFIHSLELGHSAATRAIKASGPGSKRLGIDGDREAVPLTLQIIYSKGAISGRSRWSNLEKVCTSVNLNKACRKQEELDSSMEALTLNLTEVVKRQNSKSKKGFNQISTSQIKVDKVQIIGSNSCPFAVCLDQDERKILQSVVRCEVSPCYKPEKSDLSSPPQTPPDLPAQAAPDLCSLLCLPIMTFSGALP
Briefly: PI3Kγ In Vitro Kinase Assay. It counts as biochemical. Conditions: purified recombinant p101/p110γ with G protein β1/γ2 subunits; 20 μM ATP, 25 μM PIP2; 20 minutes at room temperature. The gist of the method:
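Reactions ran 20 min at room temperature, pairing lipid micelles (25 μM PIP2, 300 μM PE, 0.02% Na-cholate, 10 mM MgCl2) with 20 μM ATP including [γ-32P]ATP. The enzyme was recombinant p101/p110γ (2.7 nM) with G protein β1/γ2 (57.7 nM). [32P]PIP3 product was stopped with H3PO4, filtered and scintillation counted.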
Turning to `O=C1NC(=O)C(=Cc2ccc3c(c2)N(Cc2ccccc2)C(=O)CO3)S1` [Example 202, 5-(4-Benzyl-3-oxo-3,4-dihydro-2H-1,4-benzoxazin-6-ylmethylene)-thiazolidine-2,4-dione], the IC50 (as a rule, the concentration that inhibits the measured activity by half) amounted to 3 nM.

`O=C1NC(=S)SC1=Cc1cc(F)c2c(c1)N(Cc1ccc(Cl)s1)C(=O)CO2` [Example 319, 4-(5-Chloro-thiophen-2-ylmethyl)-8-fluoro-6-(4-oxo-2-thioxo-thiazolidin-5-ylidenemethyl)-4H-benzo[1,4]oxazin-3-one]: the IC50 was found to be 5 nM.

Turning to `O=C1NC(=S)SC1=Cc1ccc2c(c1)N(Cc1ccc(-c3ccccc3)cc1)C(=O)CO2` [Example 9, 4-Biphenyl-4-ylmethyl-6-(4-oxo-2-thioxo-thiazolidin-5-ylidenemethyl)-4H-1,4-benzoxazin-3-one], the half-inhibitory concentration (IC50) was determined as 61 nM.

As for `Cc1cc(CN2C(=O)COc3ccc(C=C4SC(=S)NC4=O)cc32)cc(-c2cnccn2)c1` [Example 121, 4-(3-Methyl-5-pyrazin-2-yl-benzyl)-6-(4-oxo-2-thioxo-thiazolidin-5-ylidenemethyl)-4H-benzo[1,4]oxazin-3-one], the IC50 stood at 67 nM.

As to `Cc1cc(C=C2SC(=S)NC2=O)cc2c1OCC(=O)N2CCc1ccc(Cl)c(Cl)c1` [Example 112, 4-[2-(3,4-dichloro-phenyl)-ethyl]-8-methyl-6-(4-oxo-2-thioxo-thiazolidin-5-ylidenmethyl)-4H-benzo[1,4]oxazin-3-one], the concentration for half-maximal inhibition (IC50) was determined as 22 nM.

On to `CN1CC(=O)Nc2cc(C=C3SC(=S)NC3=O)ccc21` [Example 190, 4-Methyl-7-(4-oxo-2-thioxo-thiazolidin-5-ylidenemethyl)-3,4-dihydro-1H-quinoxalin-2-one], for which the IC50 worked out at 240 nM.

Take `O=C1NC(=S)O/C1=C\c1ccc2c(c1)N(Cc1cc(C(F)(F)F)cc(C(F)(F)F)c1)C(=O)CO2` [Example 271, 4-(3,5-Bis-trifluoromethyl-benzyl)-6-[4-oxo-2-thioxo-oxazolidin-(5Z)-ylidenemethyl]-4H-benzo[1,4]oxazin-3-one]: the IC50 came to 101 nM.

As for `O=C1NC(=S)SC1=Cc1cnc2c(c1)N(Cc1ccccc1)C(=O)CO2` [Example 189, 1-Benzyl-7-(4-oxo-2-thioxo-thiazolidin-5-ylidenemethyl)-1H-pyrido[2,3-b][1,4]oxazin-2-one; compound with ethane-1,2-diamine], the IC50 came to 640 nM.

With `CC(C)(C)c1cc(C(C)(C)C)nc(CN2C(=O)COc3c(F)cc(CC4SC(=S)NC4=O)cc32)n1` (centres unmarked) [Example 235, 4-(4,6-Di-tert-butyl-pyrimidin-2-ylmethyl)-8-fluoro-6-(4-oxo-2-thioxo-thazolidin-5-ylmethyl)-4H-benzo[1,4]oxazin-3-one], the half-inhibitory concentration (IC50) was 1240 nM.

For the compound `O=C1CSc2ccc(C=C3SC(=S)NC3=O)cc2N1` [Example 83, 6-(4-Oxo-2-thioxo-thiazolidin-5-ylidenemethyl)-4H-1,4-benzothiazin-3-one], the IC50 amounted to 260 nM.

In the case of `CC(C)(C)c1cc(CN2C(=O)CSc3ccc(C=C4SC(=S)NC4=O)cc32)cc(C(C)(C)C)c1` [Example 82, 4-(3,5-Di-tert-butyl-benzyl)-6-(4-oxo-2-thioxo-thiazolidin-5-ylidenemethyl)-4H-1,4-benzothiazin-3-one], the half-inhibitory concentration (IC50) stood at 3740 nM.

`O=C1NC(=S)S/C1=C\c1cc(F)c2c(c1)N(Cc1ccc(Cl)c(Cl)c1)C(=O)CO2` [Example 341, 4-(3,4-Dichloro-benzyl)-8-fluoro-6-[4-oxo-2-thioxo-thiazolidin-(5Z)-ylidenemethyl]-4H-benzo[1,4]oxazin-3-one]: the IC50 was found to be 3 nM.

On to `Cc1cc(CN2C(=O)COc3c(F)cc(C=C4SC(=S)NC4=O)cc32)c(C)o1` [Example 318, 4-(2,5-Dimethyl-furan-3-ylmethyl)-8-fluoro-6-(4-oxo-2-thioxo-thiazolidin-5-ylidenemethyl)-4H-benzo[1,4]oxazin-3-one], for which the IC50 was 25 nM.

Consider `O=C1NC(=S)SC1=Cc1ccc2c(c1)N(Cc1ccc(F)cc1)C(=O)CO2` [Example 303, 4-(4-Fluoro-benzyl)-6-(4-oxo-2-thioxo-thiazolidin-5-ylidenemethyl)-4H-benzo[1,4]oxazin-3-one], for which the IC50 was 2 nM.

In the case of `O=C1NC(=S)SC1=Cc1ccc2c(c1)N(Cc1cc(Br)cc(Br)c1)C(=O)CO2` [Example 217, 4-(3,5-Dibromo-benzyl)-6-(4-oxo-2-thioxo-thiazolidin-5-ylidenemethyl)-4H-1,4-benzoxazin-3-one], the IC50 was determined as 42 nM.

As for `CC(C)(C)c1cc(C(C)(C)C)nc(CN2C(=O)COc3ccc(CC4SC(=S)NC4=O)cc32)n1` (centres unmarked) [Example 234, 4-(4,6-Di-tert-butyl-pyrimidin-2-ylmethyl)-6-(4-oxo-2-thioxo-thazolidin-5-ylmethyl)-4H-benzo[1,4]oxazin-3-one], the 50% inhibitory concentration (IC50) is 2070 nM.

On to `CN1CCN(Cc2cccc(CN3C(=O)COc4ccc(C=C5SC(=S)NC5=O)cc43)c2)CC1` [Example 48, 4-[3-(4-Methyl-piperazin-1-ylmethyl)-benzyl]-6-(4-oxo-2-thioxo-thiazolidin-5-ylidenemethyl)-4H-1,4-benzoxazin-3-one], for which the IC50 stood at 42 nM.

As for `O=C1NC(=S)S/C1=C\c1ccc2c(c1)N(Cc1ccc(C(=O)N3CCOCC3)cc1)C(=O)CO2` [Example 281, 4-[4-(Morpholine-4-carbonyl)-benzyl]-6-[4-oxo-2-thioxo-thiazolidin-(5Z)-ylidenemethyl]-4H-benzo[1,4]oxazin-3-one], the IC50 was 8 nM.

On to `O=C1NC(=O)/C(=C/c2ccc3c(c2)N(Cc2cc(C(F)(F)F)cc(C(F)(F)F)c2)C(=O)CO3)S1` [Example 272, 5-[1-[4-(3,5-Bis-trifluoromethyl-benzyl)-3-oxo-3,4-dihydro-2H-benzo[1,4]oxazin-6-yl]-meth-(Z)-ylidene]-thiazolidine-2,4-dione], for which the half-inhibitory concentration (IC50) stood at 70 nM.

Take `CC(C)(C)c1cc(CN2C(=O)COc3c(Cl)cc(C=C4SC(=S)NC4=O)cc32)cc(C(C)(C)C)c1` [Example 47, 8-Chloro-4-(3,5-di-tert-butyl-benzyl)-6-(4-oxo-2-thioxo-thiazolidin-5-ylidenemethyl)-4H-1,4-benzoxazin-3-one]: the IC50 amounted to 320 nM.

On to `CN1CCN(C(=O)c2ccc(CN3C(=O)COc4ccc(/C=C5\SC(=S)NC5=O)cc43)cc2)CC1` [Example 280, 4-[4-(4-Methyl-piperazine-1-carbonyl)-benzyl]-6-[4-oxo-2-thioxo-thiazolidin-(5Z)-ylidenemethyl]-4H-benzo[1,4]oxazin-3-one], for which the IC50 was 8 nM.

Take `COc1cc(C=C2SC(=S)NC2=O)cc2c1OCC(=O)N2Cc1ccccc1` [Example 153, 4-Benzyl-8-methoxy-6-(4-oxo-2-thioxo-thiazolidin-5-ylidenemethyl)-4H-benzo[1,4]oxazin-3-one]: the IC50 is 96 nM.

With `O=C1NC(=S)SC1=Cc1ccc2c(c1)N(CCCCc1ccccc1)C(=O)CO2` [Example 174, 6-(4-Oxo-2-thioxo-thiazolidin-5-ylidenemethyl)-4-(4-phenyl-butyl)-4H-1,4-benzoxazin-3-one], the IC50 is 2 nM.

On to “4-Methyl-6-(4-oxo-2-thioxo-oxazolidin-5-ylidenemethyl)-4a,8a-dihydro-4H-benzo[1,4]oxazin-3-one, Potassium Salt [Example 204]”, for which the half-maximal inhibitory concentration (IC50) came out at 16 nM.

On to `O=C1NC(=S)SC1=Cc1ccc2c(c1)N(Cc1ccc(CN3CCCCC3)cc1)C(=O)CO2` [Example 19, 4-(4-Piperidin-1-ylmethyl-benzyl)-6-(4-oxo-2-thioxo-thiazolidin-5-ylidenemethyl)-4H-1,4-benzoxazin-3-one], for which the IC50 was found to be 8 nM.

For `Cc1cccc(C)c1CN1C(=O)COc2ccc(C=C3SC(=S)NC3=O)cc21` [Example 31, 4-(2,6-Dimethyl-benzyl)-6-(4-oxo-2-thioxo-thiazolidin-5-ylidenemethyl)-4H-1,4-benzoxazin-3-one], the IC50 was found to be 83 nM.

As to `O=C1NC(=S)SC1=Cc1cc(F)c2c(c1)N(Cc1cc(Br)cc(Br)c1)C(=O)CO2` [Example 297, 4-(3,5-Dibromo-benzyl)-8-fluoro-6-(4-oxo-2-thioxo-thiazolidin-5-ylidenemethyl)-4H-benzo[1,4]oxazin-3-one], the half-maximal inhibitory concentration (IC50) came out at 36 nM.

With `O=C1NC(=S)SC1=Cc1cc(F)c2c(c1)N(Cc1ccc3nccnc3c1)C(=O)CO2` [Example 315, 8-Fluoro-6-(4-Oxo-2-thioxo-thiazolidin-5-ylidenemethyl)-4-quinoxalin-6-ylmethyl-4H-benzo[1,4]oxazin-3-one; Compound with Ethane-1,2-diamine], the IC50 was 44 nM.

As for `O=C1COc2c(F)cc(C=C3SC(=S)NC3=O)cc2N1` [Example 53, 8-Fluoro-6-(4-oxo-2-thioxo-thiazolidin-5-ylidenemethyl)-4H-1,4-benzoxazin-3-one], the IC50 came to 43 nM.

Consider `CC(C)(C)OC(=O)N1CCN(Cc2ccc(CN3C(=O)COc4ccc(C=C5SC(=O)NC5=O)cc43)cc2)CC1` [Example 75, 4-{4-[6-(2,4-dioxo-thiazolidin-5-ylidenemethyl)-3-oxo-2,3-dihydro-1,4-benzoxazin-4-ylmethyl]-benzyl}-piperazine-1-carboxylic acid tert-butyl ester], for which the IC50 was determined as 155 nM.

As for `O=C1NC(=S)S/C1=C\c1ccc2c(c1)N(Cc1ccc(C(=O)O)cc1)C(=O)CO2` [Example 288, 4-{3-oxo-6-[4-oxo-2-thioxo-thiazolidin-(5Z)-ylidenemethyl]-2,3-dihydro-benzo[1,4]oxazin-4-ylmethyl}-benzoic acid; Compound with ethane-1,2-diamine], the IC50 was 35 nM.

`O=C1NC(=S)SC1=Cc1ccc2c(c1)N(Cc1ccncc1)C(=O)CO2` [Example 148, 6-(4-Oxo-2-thioxo-thiazolidin-5-ylidenemethyl)-4-pyridin-4-ylmethyl-4H-benzo[1,4]oxazin-3-one]: the IC50 amounted to 61 nM.
